Source: paper PMC9718554, “Discovery of a fragment hit compound targeting D-Ala:D-Ala ligase of bacterial peptidoglycan biosynthesis” (Journal of Enzyme Inhibition and Medicinal Chemistry, 2022)
Read-outs that look alike come from different tables or passages of the source. Residues, ends and D or L forms follow the SMILES beside them.

Target: T1, E. coli DdlB enzyme (D-alanine:D-alanine ligase) (Escherichia coli, UniProt P07862)
T1 construct: made in house; host or cells: E. coli
Test: biochemical
Details: read-out: DdlB RA; for remaining activity at 2100 µM: tested concentration 2.1 mM; for remaining activity at 1800 µM: tested concentration 1.8 mM; for remaining activity at 2000 µM: tested concentration 2.0 mM; for remaining activity at 2300 µM: tested concentration 2.3 mM; for remaining activity at 1900 µM: tested concentration 1.9 mM; for remaining activity at 1700 µM: tested concentration 1.7 mM; for remaining activity at 2400 µM: tested concentration 2.4 mM

SMILES: CC(CCc1ccccc1)NC(=O)N1CCOCC1 (stereo not shown) [Compound Y030-6075]
- remaining activity at 2100 µM (residual activity): 94%

SMILES: NS(=O)(=O)c1ccc(CNC(=O)C2CCCO2)cc1 (stereo not shown) [Compound Y030-8649]
- remaining activity at 1800 µM: 97%

SMILES: CCCCC(=O)Nc1ccc(S(N)(=O)=O)cc1 [Compound Y030-9753]
- remaining activity at 2000 µM: 96%

SMILES: CC(C)(C)NS(=O)(=O)Cc1ccc(Cl)cc1 [Compound Y031-1123]
- remaining activity at 2300 µM: 91%

SMILES: Cc1cc(NC(=O)C2CC(=O)N(C3CCCCC3)C2)no1 (stereo not shown) [Compound Y031-2007]
- remaining activity at 1900 µM (residual activity): 83%

SMILES: CCC(C)(C)NC(=O)C1CC(=O)N(c2ccccc2)C1 (stereo not shown) [Compound Y031-3748]
- remaining activity at 2200 µM (residual activity, tested concentration 2.2 mM): 101%

SMILES: C[C@H](NC(=O)[C@H](C)n1nnc2ccccc2c1=O)C(=O)O [Compound Y040-2749]
- remaining activity at 1700 µM (fragment library screening): 92%

SMILES: CC(=O)N1CCC2(CCc3ccc(O)cc3O2)CC1 [Compound Y041-9811]
- remaining activity at 2100 µM: 94%

SMILES: O=C(O)c1ccc(N2Cc3ccccc3C2=O)cc1 [Compound Y042-2866]
- remaining activity at 2000 µM (fragment library screening): 82%

SMILES: O=c1[nH]c2ncc(Br)cc2o1 [Compound Y042-2897]
- remaining activity at 2300 µM: 92%

SMILES: O=C(O)C[C@H]1NC(=O)N(CCc2cccc(F)c2)C1=O [Compound Y042-2983]
- remaining activity at 1800 µM (fragment library screening): 93%

SMILES: O=C(O)CCc1nnc2ccccn2c1=O [Compound Y042-3065]
- remaining activity at 2300 µM: 102%

SMILES: O=C(O)C(Cc1ccccc1)Nc1ncccn1 (stereo not shown) [Compound Y042-3157]
- remaining activity at 2100 µM: 90%

SMILES: O=C(O)CCCc1nc2ccccc2c(=O)n1C1CC1 [Compound Y042-5065]
- remaining activity at 1800 µM (fragment library screening): 92%

SMILES: O=C(O)c1cc(-c2cccnc2)nc2ccccc12 [Compound Y042-7719]
- remaining activity at 2000 µM (fragment library screening): 85%

SMILES: O=C(O)CC1CCN(c2ccc(Cl)nn2)CC1 [Compound Y043-2007]
- remaining activity at 2000 µM (fragment library screening): 90%

SMILES: O=C(O)c1ccccc1NC(=O)N1CCOCC1 [Compound Y043-2494]
- remaining activity at 2000 µM (residual activity): 96%

SMILES: CN1CCN(C(=O)Nc2ccccc2C(=O)O)CC1 [Compound Y043-2499]
- remaining activity at 1900 µM (residual activity): 92%

SMILES: O=C(O)c1ccnc(N2CCOCC2)c1 [Compound Y043-8163]
- remaining activity at 2400 µM: 89%

SMILES: NCC(=O)N[C@@H](Cc1ccc(O)cc1)C(=O)O [Compound Y043-8421] (H-Gly-Tyr-OH)
- remaining activity at 2100 µM: 95%

SMILES: O=C(O)CCCn1cnc2ccc([N+](=O)[O-])cc2c1=O [Compound Y044-6460]
- remaining activity at 1800 µM (fragment library screening): 63%

SMILES: O=C(O)CCC(=O)N1CCO[C@H](c2ccccc2)C1 [Compound Y044-6579]
- remaining activity at 1900 µM (fragment library screening): 93%

SMILES: CCOc1ccc(S(N)(=O)=O)cc1C [Compound Y050-1019]
- remaining activity at 2300 µM: 79%

SMILES: Cc1ccc(S(N)(=O)=O)cc1C(=O)NCC(C)C [Compound Y050-1744]
- remaining activity at 1800 µM: 83%

SMILES: CCS(=O)(=O)N1CCC(C(=O)N2CCCCC2)CC1 [Compound Y050-2528]
- remaining activity at 2100 µM (residual activity): 97%

SMILES: CC(C)CS(=O)(=O)N1CCc2ccccc2C1 [Compound Y200-6914]
- remaining activity at 2400 µM: 73%

SMILES: Cc1ccc(S(N)(=O)=O)cc1NC(=O)c1cccnc1 [Compound Y202-7310]
- remaining activity at 1700 µM: 100%

SMILES: CCS(=O)(=O)Nc1c(C)cc(C)cc1C [Compound Y202-7340]
- remaining activity at 2400 µM: 90%

SMILES: CC1CN(S(=O)(=O)c2ccc(F)c(F)c2)CC(C)O1 (stereo not shown) [Compound Y202-8173]
- remaining activity at 2100 µM (residual activity): 95%

SMILES: O=C(Nc1cccc(F)c1)[C@H]1CCCC[C@H]1C(=O)O [Compound Y203-6612]
- remaining activity at 1900 µM (fragment library screening): 93%

SMILES: O=C(Nc1cccnc1)[C@H]1CCCC[C@H]1C(=O)O [Compound Y203-7528]
- remaining activity at 2000 µM (fragment library screening): 91%

SMILES: CCC(CC)C(=O)Nc1ccc(S(N)(=O)=O)cc1 [Compound Y203-8619]
- remaining activity at 1800 µM: 81%

SMILES: O=C(NC1CCCC1)[C@H]1CCCC[C@H]1C(=O)O [Compound Y203-9770]
- remaining activity at 2100 µM: 91%

SMILES: Cc1cc(C)n(C(=O)C2CC=CCC2C(=O)O)n1 (stereo not shown) [Compound Y203-9842]
- remaining activity at 2000 µM: 90%

SMILES: O=C(O)C1CCCCC1C(=O)NCc1ccc(F)cc1 (stereo not shown) [Compound Y204-1009]
- remaining activity at 1800 µM: 95%

SMILES: O=C(NCc1ccncc1)[C@H]1CC=CC[C@H]1C(=O)O [Compound Y204-2545]
- remaining activity at 1900 µM (fragment library screening): 75%

SMILES: NS(=O)(=O)c1ccc(NC(=O)CCC2CCCC2)cc1 [Compound Y204-2561]
- remaining activity at 1700 µM: 87%

SMILES: N#CCC(=O)N(c1ccccc1)c1ccccc1 [Compound Y204-3664]
- remaining activity at 2500 µM (tested concentration 2.5 mM): 89%

SMILES: O=C(O)CCCC(=O)N1CCN(c2ccccc2)CC1 [Compound Y204-6418]
- remaining activity at 1800 µM (fragment library screening): 99%

SMILES: O=C(O)C1C2CCC(C2)C1C(=O)NC1CC1 (stereo not shown) [Compound Y205-0716]
- remaining activity at 2700 µM (tested concentration 2.7 mM): 93%
